# Patent US4118506A, “Pharmaceutical compositions containing 1,3-dithiol-2-ylidene malonate derivatives” (Nihon Nohyaku Co., Ltd., priority 1976, dated 1978)
# Assays:
# [1] = test system: acute liver damage induced by carbon tetrachloride; assay: protective effect on acute liver damage associated with centrilobular necrosis, carbon tetrachloride model; type: in vivo, mouse (dd strain); conditions: 250 mg/kg oral 6 h before CCl4, 24 h after CCl4
# Excerpt: Carbon tetrachloride (CCl4) administration induces centrilobular necrosis of the liver associated with loss of diphosphopyridine nucleotide, hepatic glycogen, coenzyme A and increase in neutral fat. Release of several enzymes from the hepatocytes, and increase of enzyme activities in the plasma are recognized as the result of the damage of the liver. A suitable means for evaluating the degree of damage induced by CCl4 or the degree of protection afforded by drugs is to study the plasma glutamic-pyruvic transaminase (p-GPT) activity.
# Methods: The test compounds were dissolved or suspended in olive oil and administered orally at the dose of 250 mg/kg to the mice (Four-week-old male mice-dd strain). After 6 hours, CCl4 was administered orally (0.05 ml/kg as olive oil solution). Animals were killed 24 hours after CCl4 administration, and the liver was grossly observed. The plasma was obtained by centrifugation. Activities of p-GPT were determined by the method of Reitman and Frankel and expressed in Karmen units.
# Score for liver damage index was as follows:
# Each figure indicates average of 5 to 6 mice. Values of p-GPT over 1,000 Karmen unit regarded as 1,000 for calculation of average for convenience.
# [2] = test system: acute liver damage induced by bromobenzene; assay: protective effect on acute liver damage associated with centrilobular necrosis, bromobenzene model; type: in vivo, rat (SD)
# Protocol: Bromobenzene (hereinafter abbreviated as BB), Dimethylnitrosamine (hereinafter abbreviated as DMN) and chloroform (hereinafter abbreviated as CF) resemble carbon tetrachloride in inducing liver damage associated with centrilobular necrosis.
# Test compound or anethol trithion was orally administered to animal at the dose of 100 mg/kg. Twenty four hours after it (in the case of dimethylnitrosamine, exceptionally fifteen hours after it) the animals were sacrificed and blood samples were collected. Indices of hepatotoxicity adoptable in each chemical were measured, from which the efficacy of the compound was evaluated.
# BB male rat 0.75 oral p-GPT activity
# [3] = test system: bile flow and excretion of biliary salt; assay: cholagogic action: bile flow and biliary salt excretion; type: in vivo, rat (SD-JCL strain); design: key to excretion of biliary salt: relative to 1 h pre-drug amount taken as 100
# Protocol: The male rat (4 week-old, SD-JCL strain) was anesthetized with sodium pentobarbital (37.5 mg/kg, intraperitoneal injection). The abdominal cavity was opened through a midline incision. The common bile duct was catheterized with polyethylene tube o.d. 0.8 mm. The catheter was brought to the outside through the abdominal incision wound prior to closing. Bile was collected from the catheter continuously with time intervals of one hour. The quantity of bile produced in one hour was determined by weighing and that of biliary salt was determined by enzymatic method (Ikagaku Jikkenho Koza 1B, Biological Constituents II, edited by Tamino […]). The amount of biliary salts was represented as chloic acid equivalent. In the representation of the results, the quantities of bile and biliary salts produced in one hour prior to the administration of drug were taken as 100. […] As reference, anethol trithion was used.
# [4] = test system: glucose metabolic function of liver; assay: effect on glucose metabolism (blood sugar); type: in vivo, mouse; conditions: for Blood Sugar: 250 mg/kg oral 6 h before glucose 4.0 g/kg
# Protocol: Methods: The test compounds dissolved in olive oil and administered orally at the dose of 250 mg/kg to the mice. After 6 hours, 4.0 g/kg of glucose was orally administered. The same amount of glucose was given to the control animals. 0.02 ml of blood was taken from caudal vein of the mice at 30, 60, 90 and 120 min. after glucose administration. Blood sugar was measured by the procedure of Somogyi-Nelson. Number of animals used was 5 to 6 mice for each treatment.
# [5] = test system: liver injury and chronic hepatitis; assay: clinical test on liver injury and chronic hepatitis; type: in vivo, human; conditions: for p-GOT activity / p-GPT activity: tablets of Example 6, 12 a day
# Protocol: Six patients were used for the test. One was diagnosed as liver injury caused by administration of PAS (p-aminosalicyclic acid) for three months and five were diagnosed as chronic hepatitis by doctor.
# The tablets obtained in Example 6 were orally administered to the respective patients at the dose of twelve tablets a day (four tablets after every meal).
# Curing effects on the liver injury and chronic hepatitis after administration were evaluated by measuring plasma transaminase activity (p-GPT and p-GOT).
# [6] = bromobenzene 0.75 ml/kg oral, 100 mg/kg oral 6 h before, 24 h after
# [7] = 5 hours after administration, 200 mg/kg oral
# [8] = patient 1, liver injury (PAS), person, before administration
# [9] = patient 2, chronic hepatitis, before administration
# [10] = patient 3, chronic hepatitis, before administration
# [11] = patient 4, chronic hepatitis, before administration
# [12] = patient 5, chronic hepatitis, before administration
# [13] = patient 6, chronic hepatitis, before administration
smiles,measurement,setting,value
"CC(C)OC(=O)C(C(=O)OC(C)C)=C1SC=CS1 [Compound 4, diisopropyl 1,3-dithiol-2-ylidene malonate]",Liver Damage Index,"[1]; 0 normal, 2 slightly recognized, 4 clearly observable, 6 heavy damage, average of 5 to 6 mice",0.0
same,p-GPT,"[1]; values over 1,000 taken as 1,000",36 Karmen units
same,indices of hepatotoxicity,"[2]; BB, DMN and CF models together, Table 4",normalized the indices of hepatotoxicity
same,BSP,[2]; [6],10.6 ± 4.5 mg/dL
same,p-GPT,[2]; [6],23 ± 3.7 Karmen unit
same,excretion of biliary salt,"[3]; 200 mg/kg oral, 1 hour after treatment, before treatment = 100",108 ± 15
same,excretion of biliary salt,"[3]; 200 mg/kg oral, 2 hours after treatment, before treatment = 100",132 ± 25
same,excretion of biliary salt,"[3]; 200 mg/kg oral, 3 hours after treatment, before treatment = 100",138 ± 27
same,excretion of biliary salt,"[3]; 200 mg/kg oral, 4 hours after treatment, before treatment = 100",117 ± 27
same,excretion of biliary salt,"[3]; 200 mg/kg oral, 5 hours after treatment, before treatment = 100",90 ± 21
same,amount of total biliary salts excreted relative to control,[3]; [7],1.7 times
same,quantity of total excreted bile relative to control,[3]; [7],1.2 times
same,excretion of biliary salt,"[3]; before treatment, 1 hour, taken as 100 (normalisation)",100
same,"Blood Sugar, percent of 0 min value",[4]; 0 min,100%
same,Blood Sugar,[4]; 0 min,123 ± 10.9 mg/dL
same,Blood Sugar,[4]; 30 min,282 ± 25.2 mg/dL
same,Blood Sugar,[4]; 60 min,236 ± 19.7 mg/dL
same,Blood Sugar,[4]; 90 min,159 ± 18.3 mg/dL
same,Blood Sugar,[4]; 120 min,138 ± 14.4 mg/dL
same,"Blood Sugar, percent of 0 min value",[4]; 30 min,229%
same,"Blood Sugar, percent of 0 min value",[4]; 60 min,192%
same,"Blood Sugar, percent of 0 min value",[4]; 90 min,129%
same,"Blood Sugar, percent of 0 min value",[4]; 120 min,112%
same,plasma transaminase activity (p-GPT and p-GOT),[5]; in words,useful for normalizing plasma transaminase activity
same,p-GOT activity,"[5]; patient 1, after 3 days",270 Karmen Unit
same,p-GPT activity,"[5]; patient 1, after 3 days",215 Karmen Unit
same,p-GOT activity,"[5]; patient 1, after 4 days",231 Karmen Unit
same,p-GPT activity,"[5]; patient 1, after 4 days",169 Karmen Unit
same,p-GOT activity,"[5]; patient 1, after 7 days",81 Karmen Unit
same,p-GPT activity,"[5]; patient 1, after 7 days",94 Karmen Unit
same,p-GOT activity,"[5]; patient 1, after 12 days",36 Karmen Unit
same,p-GPT activity,"[5]; patient 1, after 12 days",41 Karmen Unit
same,p-GOT activity,"[5]; patient 1, after 15 days",37 Karmen Unit
same,p-GPT activity,"[5]; patient 1, after 15 days",24 Karmen Unit
same,p-GOT activity,"[5]; patient 1, after 19 days",24 Karmen Unit
same,p-GPT activity,"[5]; patient 1, after 19 days",21 Karmen Unit
same,p-GOT activity,[5]; [8],270 Karmen Unit
same,p-GPT activity,[5]; [8],270 Karmen Unit
same,p-GOT activity,"[5]; patient 2, after 14 days",68 Karmen Unit
same,p-GPT activity,"[5]; patient 2, after 14 days",62 Karmen Unit
same,p-GOT activity,"[5]; patient 2, after 35 days",24 Karmen Unit
same,p-GPT activity,"[5]; patient 2, after 35 days",43 Karmen Unit
same,p-GOT activity,[5]; [9],270 Karmen Unit
same,p-GPT activity,[5]; [9],270 Karmen Unit
same,p-GOT activity,"[5]; patient 3, after 14 days",100 Karmen Unit
same,p-GPT activity,"[5]; patient 3, after 14 days",96 Karmen Unit
same,p-GOT activity,"[5]; patient 3, after 56 days",77 Karmen Unit
same,p-GPT activity,"[5]; patient 3, after 56 days",87 Karmen Unit
same,p-GOT activity,[5]; [10],145 Karmen Unit
same,p-GPT activity,[5]; [10],163 Karmen Unit
same,p-GOT activity,"[5]; patient 4, after 2 days",60 Karmen Unit
same,p-GPT activity,"[5]; patient 4, after 2 days",113 Karmen Unit
same,p-GOT activity,"[5]; patient 4, after 9 days",68 Karmen Unit
same,p-GPT activity,"[5]; patient 4, after 9 days",94 Karmen Unit
same,p-GOT activity,"[5]; patient 4, after 16 days",49 Karmen Unit
same,p-GPT activity,"[5]; patient 4, after 16 days",62 Karmen Unit
same,p-GOT activity,"[5]; patient 4, after 62 days",33 Karmen Unit
same,p-GPT activity,"[5]; patient 4, after 62 days",33 Karmen Unit
same,p-GOT activity,[5]; [11],80 Karmen Unit
same,p-GPT activity,[5]; [11],185 Karmen Unit
same,p-GOT activity,"[5]; patient 5, after 8 days",78 Karmen Unit
same,p-GPT activity,"[5]; patient 5, after 8 days",119 Karmen Unit
same,p-GOT activity,"[5]; patient 5, after 28 days",65 Karmen Unit
same,p-GPT activity,"[5]; patient 5, after 28 days",79 Karmen Unit
same,p-GOT activity,"[5]; patient 5, after 30 days",57 Karmen Unit
same,p-GPT activity,"[5]; patient 5, after 30 days",57 Karmen Unit
same,p-GOT activity,[5]; [12],95 Karmen Unit
same,p-GPT activity,[5]; [12],94 Karmen Unit
same,p-GOT activity,"[5]; patient 6, after 14 days",108 Karmen Unit
same,p-GPT activity,"[5]; patient 6, after 14 days",306 Karmen Unit
same,p-GOT activity,"[5]; patient 6, after 23 days",48 Karmen Unit
same,p-GPT activity,"[5]; patient 6, after 23 days",121 Karmen Unit
same,p-GOT activity,"[5]; patient 6, after 36 days",33 Karmen Unit
same,p-GPT activity,"[5]; patient 6, after 36 days",65 Karmen Unit
same,p-GOT activity,"[5]; patient 6, after 56 days",24 Karmen Unit
same,p-GPT activity,"[5]; patient 6, after 56 days",53 Karmen Unit
same,p-GOT activity,"[5]; patient 6, after 82 days",24 Karmen Unit
same,p-GPT activity,"[5]; patient 6, after 82 days",39 Karmen Unit
same,p-GOT activity,[5]; [13],83 Karmen Unit
same,p-GPT activity,[5]; [13],354 Karmen Unit
